Counter-ions that a name gives are not always drawn.
Experiment: Stability of gantofiban citrate per se and when compounded with common fillers, binders and disintegrating agents
Assay type: physicochemical

SMILES: CCOC(=O)CN1CCN(C[C@@H]2CN(c3ccc(C(N)=NC(=O)OC)cc3)C(=O)O2)CC1 [gantofiban citrate, 1-ethyl methylester 4-[[(5R)-3-[p-(carboxyamidino)phenyl]-2-oxo-5-oxazolidinyl]methyl]-1-piperazineacetate]
- Stability in a preparation containing it (compounded with fillers, binders and disintegrating agents (lactose, D-mannitol, finely crystalline cellulose, corn starch etc.)): decomposed with a lapse of time
- Stability of the substance per se (gantofiban citrate alone): stable substance
